The source of these data is paper PMC5063506, “A Novel Class of Small Molecule Agonists with Preference for Human over Mouse TLR4 Activation” (PLoS ONE, 2016).

As a reminder, the logD is lipophilicity at a set pH, counting ionised and neutral species. For orientation: solubility means how much of the substance goes into solution per volume.

The structures appear in SMILES notation. ≈ marks a conversion by molar mass, not a printed value. Read-outs that look alike come from different tables or passages of the source.

One series has as its target T1, human TLR4 (Homo sapiens, UniProt O00206+Q9Y6Y9).
T1 construct: expressed in transfected cells; host or cells: HEK293 with stably integrated pNiFty2-SEAP reporter
In words: Human TLR4 NFκB SEAP reporter gene assay in hTLR4-transfected HEK293 cells. Format: cell-based. The settings on record: for EC50: NFκB SEAP reporter, hTLR4-transfected HEK293 cells, 20 h, read-out: Human TLR4 pEC50 (converted). On the procedure: (§1) HEK293 cells stably transfected with pNiFty2-SEAP reporter plasmid were transiently transfected with either human or mouse TLR4 (pUNO expression vector), in combination with either human or mouse CD14/MD2 (pDUO expression vector). Transient transfectants were seeded in Dulbecco’s Modified Eagle Medium, FCS 10% (v/v), 2 mM l glutamine and non-essential amino acids. Cells were seeded in tissue culture treated clear flat bottom polystyrene 96 well plates (Costar, 3598) at 1e4 cells/well. Concentration-response curves were generated by addition of test compounds and incubation for 20 h at 37°C in an atmosphere of 5% CO2. LPS (E. coli 0111:B4, Ultra-pure, Invivogen) or PHAD (Avanti Polar Lipids) was used as a positive control. The SEAP released was quantified using p nitrophenyl phosphate as a substrate, and the absorbance at 405 nm was measured at 30 second intervals over several minutes using a microplate reader. Some data are recorded as the pEC50, the negative log of the EC50 value. Other data generated from these reporter cell lines were converted to AUC (area under the curve) values by interpolation of fitted cubic spline curve between OD value and log concentration levels. The calculation is performed using MESS package in statistical software R (www.r-project.org/).
(In general: A reporter such as luciferase makes a cellular process visible.)

Another series addresses T2, human TLR4/MD2 (Homo sapiens, UniProt O00206+Q9Y6Y9).
T2 construct: host or cells: HEK293
The series can be described thus: hTLR4/MD2-HEK293 transfectant SEAP (QUANTI-Blue) dose response, AUC. Format: cell-based. The settings on record: 1 μg/ml to 4 ng/ml, 24 h, SEAP OD 650 nm vs log concentration. On the procedure:
as §1, with “Cells” for “HEK293 cells stably transfected with pNiFty2-SEAP reporter plasmid were transiently transfected with either human or mouse TLR4 (pUNO expression vector), in combination with either human or mouse CD14/MD2 (pDUO expression vector). Transient transfectants were seeded in Dulbecco’s Modified Eagle Medium, FCS 10% (v/v), 2 mM l glutamine and non-essential amino acids. Cells”
(§2) Fig 4 Ugi compounds preferentially activate TLR4-HEK transfectants expressing human MD2. A-B) HEK293 cells transfected with human TLR4/MD2 or mouse TLR4/MD2 (InVivogen) were stimulated with TLR4 agonists including MPL, PHAD, and Ugi compounds at 1 μg/ml to 4 ng/ml and with LPS at 25 ng/ml to 64 pg/ml for 24 h. SNs were analyzed for SEAP content by the QUANTI-Blue assay (InVivogen) and analysis at 650 nm by spectrophotometer. AUC (area under the curve) values were calculated as in Methods. No AUC value was calculated for LPS since it was utilized with a different dose range. C) HEK transfectants with cis- or trans-species expression of TLR4, MD2, and CD14 were stimulated with Ugi compounds in a dose response range of 9 μM to 1 nM or with LPS (boxes) at 75 ng/ml to 5 pg/ml for 48 h. Data was obtained as Vmax calculated over the initial linear portion of the kinetic absorbance measurements. The AUC (area under the curve) value for the dose response curve of Vmax vs log10 (molar units) was calculated for each compound using Trapezoidal rule. TEXT PRINTED IN THE PICTURE: (A) MPL: hTLR4-HEK AUC: 0.55 | (A) AZ617: hTLR4-HEK AUC: 5.90 | (A) AZ618: hTLR4-HEK AUC: 6.56 | (A) AZ839: hTLR4-HEK AUC: 6.00 | (A) AZ161: hTLR4-HEK AUC: 5.54 | (A) AZ902: hTLR4-HEK AUC: 7.04 | (A) GLA: hTLR4-HEK AUC: 3.75 | (B) MPL: mTLR4-HEK AUC: 13.27 | (B) AZ617: mTLR4-HEK AUC: 0.89 | (B) AZ618: mTLR4-HEK AUC: 1.03 | (B) AZ839: mTLR4-HEK AUC: 0.93 | (B) AZ161: mTLR4-HEK AUC: 0.99 | (B) AZ902: mTLR4-HEK AUC: 1.55 | (B) GLA: mTLR4-HEK AUC: 14.24

The nature of series [1]: LogD, octanol/water distribution coefficient. The format is physicochemical. The settings on record: pH 7.4; octanol/water distribution coefficient at pH7.4. The text has this: (§3) Fig 2 Optimization stages of Ugi products as TLR4 agonists. *Human TLR-4 NFκB SEAP reporter assays; protocol as described in Methods. Data are reported as pEC50, or negative log of the EC50 values. **Clint rh / hm represents intrinsic clearance in presence of rat hepatocytes (μL/min/10^6 cells) and human microsomes (μL/min/mg protein). […] Thus a drug molecule with LogD >4 might be considered to be very lipophilic and therefore more likely to suffer from rapid metabolic turnover, poor solubility and receptor promiscuity; whereas a LogD range of 1–3 is more likely to be associated with optimal physicochemical and drug-like properties. ^††Solubility was measured by dissolution of solid samples in buffer at pH 7.4.

The next series deals with T3, mouse TLR4/MD2 (Mus musculus, UniProt Q9JHF9+Q9QUK6).
T3 construct: host or cells: HEK293
T3 sequence (Q9QUK6 26-835): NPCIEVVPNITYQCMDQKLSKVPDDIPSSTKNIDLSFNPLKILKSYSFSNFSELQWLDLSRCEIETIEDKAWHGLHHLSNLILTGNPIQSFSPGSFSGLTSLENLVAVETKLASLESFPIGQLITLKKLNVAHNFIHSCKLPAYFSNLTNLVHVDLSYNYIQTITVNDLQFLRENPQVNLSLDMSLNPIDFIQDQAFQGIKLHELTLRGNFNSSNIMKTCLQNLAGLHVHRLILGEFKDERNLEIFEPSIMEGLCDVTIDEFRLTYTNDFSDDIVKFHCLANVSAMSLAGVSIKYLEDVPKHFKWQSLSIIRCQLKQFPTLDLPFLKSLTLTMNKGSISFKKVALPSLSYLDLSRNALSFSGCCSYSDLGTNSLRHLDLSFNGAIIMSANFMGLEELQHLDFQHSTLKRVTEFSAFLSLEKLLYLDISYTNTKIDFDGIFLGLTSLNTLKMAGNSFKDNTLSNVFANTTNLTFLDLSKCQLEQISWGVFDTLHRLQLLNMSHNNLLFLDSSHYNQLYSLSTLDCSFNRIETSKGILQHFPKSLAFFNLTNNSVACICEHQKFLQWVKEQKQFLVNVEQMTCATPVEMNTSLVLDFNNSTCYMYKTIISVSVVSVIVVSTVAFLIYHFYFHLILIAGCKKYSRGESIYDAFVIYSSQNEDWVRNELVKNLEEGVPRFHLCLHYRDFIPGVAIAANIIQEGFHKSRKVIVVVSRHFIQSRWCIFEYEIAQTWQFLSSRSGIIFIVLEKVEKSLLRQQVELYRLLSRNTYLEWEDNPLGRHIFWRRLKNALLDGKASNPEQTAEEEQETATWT
T3 sequence (Q9JHF9 19-160): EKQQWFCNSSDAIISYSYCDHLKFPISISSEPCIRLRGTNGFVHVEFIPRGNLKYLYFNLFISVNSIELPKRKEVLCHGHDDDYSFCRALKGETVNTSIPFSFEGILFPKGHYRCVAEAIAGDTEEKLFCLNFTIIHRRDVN
The series can be described thus: mTLR4/MD2-HEK293 transfectant SEAP (QUANTI-Blue) dose response, AUC. Format: cell-based. The settings on record: 1 μg/ml to 4 ng/ml, 24 h, SEAP OD 650 nm vs log concentration. On the procedure:
as §1, with “Cells” for “HEK293 cells stably transfected with pNiFty2-SEAP reporter plasmid were transiently transfected with either human or mouse TLR4 (pUNO expression vector), in combination with either human or mouse CD14/MD2 (pDUO expression vector). Transient transfectants were seeded in Dulbecco’s Modified Eagle Medium, FCS 10% (v/v), 2 mM l glutamine and non-essential amino acids. Cells”
as §2

Series [2] in a line: Intrinsic clearance in presence of rat hepatocytes. The note with it: read-out: Clint rh (intrinsic clearance, rat hepatocytes). Format: in vitro ADME.
Text: as §3

The nature of series [3]: Solubility by dissolution of solid samples in buffer. Format: physicochemical. The note with it: aqueous buffer, thermodynamic from solid; solid samples in buffer at pH 7.4.
Text: as §3

Series [4] can be described thus: Intrinsic clearance in presence of human microsomes. The format is in vitro ADME. The settings on record: read-out: Clint hm (intrinsic clearance, human microsomes).
Text: as §3

The test system of the next series is cytochrome P450 enzymes. In words: Inhibition of cytochrome P450 enzymes (unpublished data). The format is in vitro ADME. The settings on record: compared with earlier-stage, more lipophilic Ugi compounds.

T1 sequence (O00206 24-839): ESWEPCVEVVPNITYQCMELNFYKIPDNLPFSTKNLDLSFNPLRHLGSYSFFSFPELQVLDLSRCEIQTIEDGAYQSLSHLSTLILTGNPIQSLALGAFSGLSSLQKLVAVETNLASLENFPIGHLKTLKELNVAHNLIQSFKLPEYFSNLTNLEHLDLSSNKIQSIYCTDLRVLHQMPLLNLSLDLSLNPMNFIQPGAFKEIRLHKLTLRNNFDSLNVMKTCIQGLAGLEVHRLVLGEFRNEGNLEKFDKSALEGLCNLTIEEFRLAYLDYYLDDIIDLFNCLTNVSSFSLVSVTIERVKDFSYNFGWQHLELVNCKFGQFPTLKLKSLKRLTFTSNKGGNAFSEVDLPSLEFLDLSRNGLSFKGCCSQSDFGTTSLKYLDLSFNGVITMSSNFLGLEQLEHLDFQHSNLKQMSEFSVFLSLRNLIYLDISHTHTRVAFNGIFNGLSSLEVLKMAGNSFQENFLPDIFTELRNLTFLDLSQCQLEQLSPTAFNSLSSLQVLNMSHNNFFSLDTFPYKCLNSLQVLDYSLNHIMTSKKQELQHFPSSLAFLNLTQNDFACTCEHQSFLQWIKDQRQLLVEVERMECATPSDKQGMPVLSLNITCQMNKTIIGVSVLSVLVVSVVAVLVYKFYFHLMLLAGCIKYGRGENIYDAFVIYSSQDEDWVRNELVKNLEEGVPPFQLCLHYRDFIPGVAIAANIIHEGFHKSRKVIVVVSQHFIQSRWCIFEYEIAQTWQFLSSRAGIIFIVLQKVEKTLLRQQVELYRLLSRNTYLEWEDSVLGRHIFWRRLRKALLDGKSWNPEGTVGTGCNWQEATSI
T1 sequence (Q9Y6Y9 19-160): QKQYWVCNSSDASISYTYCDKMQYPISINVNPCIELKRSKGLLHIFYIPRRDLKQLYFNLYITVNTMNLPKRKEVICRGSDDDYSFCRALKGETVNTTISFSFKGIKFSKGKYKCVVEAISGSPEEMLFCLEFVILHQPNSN
T2 sequence (O00206 24-839): as the sequence (O00206 24-839) above
T2 sequence (Q9Y6Y9 19-160): as the sequence (Q9Y6Y9 19-160) above

On to `Cc1cccc(CN(C(=O)c2cc(-c3ccccc3)n(-c3ccccc3)n2)C(C(=O)NC2CCCC2)c2ccc(CC(=O)O)cc2)c1C` (centres unmarked) [AZ839], for which the EC50 on human TLR4 is 25.1 nM. Further, the “hTLR4-HEK AUC” value at human TLR4/MD2 was determined as 6.00. For the same compound, the logD in series [1] was found to be 3.62. Also, the “mTLR4-HEK AUC” value at mouse TLR4/MD2 was found to be 0.93.

As to `COc1ccc(N(C(=O)c2[nH]c(-c3ccccc3)cc2C)C(C(=O)NC2CCCC2)c2ccncc2)cc1` (centres unmarked) [AZ126, N-(2-(cyclopentylamino)-2-oxo-1-(pyridin-4-yl)ethyl)-N-(4-methoxyphenyl)-3-methyl-5-phenyl-1H-pyrrole-2-carboxamide], the EC50 on human TLR4 was 2510 nM. For the same compound, the hepatocyte CLint in series [2] (rat) was determined as 28 µL/min/1e6 cells. Also, in series [1], the logD was > 4.5. The compound also came in with a solubility in series [3] of 0.1 µM (≈ 0.0509 µg/mL). Moreover, the microsomal CLint in series [4] (human) amounted to 56 µL/min/mg.

Turning to `COc1ccc(N(C(=O)c2cc(-c3ccccc3)n(-c3ccccc3)n2)C(C(=O)NC2CCCC2)c2ccc(CC(=O)O)cc2)cc1` (centres unmarked) [AZ635], the EC50 on human TLR4 was 100 nM. In series [1], this compound showed a logD of 2.74.

For the compound `C#Cc1ccc(C(C(=O)NC2CCCC2)N(C(=O)c2cc(-c3ccccc3)n(-c3ccccc3)n2)c2ccc(OC)cc2)cc1` (centres unmarked) [AZ606], the “increase in potency in the hTLR4-HEK assay” value at human TLR4 (relative to AZ126) is on record as 10 fold. The hepatocyte CLint in series [2] was found to be 36 µL/min/1e6 cells. Further, the logD in series [1] was > 4.5. The compound also displayed a solubility in series [3] of 2.2 µM (≈ 1.31 µg/mL). For the same compound, the microsomal CLint in series [4] was found to be 39 µL/min/mg. Besides, the “inhibition of one or more cytochrome P450 enzymes” value in the series with cytochrome P450 enzymes is reported as “greatly reduced”.

`CC(C)c1ccc(N(C(=O)c2cc(-c3ccccc3)n(-c3ccccc3)n2)C(C(=O)NC2CCCC2)c2ccc(/C=C/C(=O)O)cc2)cc1` (centres unmarked) [AZ368, (E)-3-(4-(2-(cyclopentylamino)-1-(N-(4-isopropylphenyl)-1,5-diphenyl-1H-pyrazole-3-carboxamido)-2-oxoethyl)phenyl)acrylic acid]: on human TLR4, the EC50 was 1.58 nM.

Regarding `C#Cc1ccc(C(C(=O)N[C@@H](C(=O)O)C(C)C)N(C(=O)c2cc(-c3ccccc3)n(-c3ccccc3)n2)c2ccc(OC)cc2)cc1` (some centres unmarked) [AZ792], the EC50 on human TLR4 is 2000 nM.

With `O=C(O)Cc1ccc(C(C(=O)NC2CCCC2)N(C(=O)c2cc(-c3ccccc3)n(-c3ccccc3)n2)c2ccc(Cc3ccccc3)cc2)cc1` (centres unmarked) [AZ897], on human TLR4, the EC50 is 12.3 nM. The same compound registered a logD in series [1] of 4.3.

In the case of `C#Cc1ccc(C(C(=O)NC2CCCC2)N(C(=O)c2ccc(-c3ccccc3)[nH]2)c2ccc(OC)cc2)cc1` (centres unmarked) [AZ462], the EC50 at human TLR4 is 1000 nM. Further, the logD in series [1] was > 4.5.

As for `COc1ccc(N(C(=O)c2cc(-c3ccccc3)n(-c3ccccc3)n2)C(C(=O)NC2CCCC2)c2ccncc2)cc1` (centres unmarked) [AZ842], the EC50 at human TLR4 was 398 nM. Also, the logD in series [1] is > 4.5.

As for `CC(C)c1ccc(N(C(=O)c2cc(-c3ccccc3)n(-c3ccccc3)n2)C(C(=O)NC2CCCC2)c2ccc(CC(=O)NO)cc2)cc1` (centres unmarked) [AZ226], the EC50 at human TLR4 was 158 nM. In addition, the logD in series [1] was > 4.5.

As to `CCCCCCCCCCCCCC(=O)O[C@H](CCCCCCCCCCC)CC(=O)O[C@@H]1[C@@H](NC(=O)C[C@H](CCCCCCCCCCC)OC(=O)CCCCCCCCCCCCC)[C@H](OC[C@H]2O[C@H](O)[C@H](NC(=O)C[C@H](O)CCCCCCCCCCC)[C@@H](OC(=O)C[C@H](O)CCCCCCCCCCC)[C@@H]2O)O[C@H](CO)[C@H]1OP(=O)(O)O` [GLA, glucopyranosyl lipid A, reference compound], the “hTLR4-HEK AUC” value at human TLR4/MD2 is 3.75. Also, the “mTLR4-HEK AUC” value at mouse TLR4/MD2 was found to be 14.24.
